Reference: patent US20130143886A1, “METHODS FOR PRESERVING AND/OR INCREASING RENAL FUNCTION USING XANTHINE OXIDOREDUCTASE INHIBITORS” (priority 2006, published 2013)

Key:
Assay type in all cases: in vivo, Male Wistar rats
remnant kidney (RK) rats [1] = test: Body weight, food and water intake in remnant kidney rats; settings: RK rats (RK + Fx or RK + OA group)
Method: Male Wistar rats (295-340 g) were used to produce rats with remnant kidney (RK) as follows. […] Rats were then assigned to one of four treatment groups: Group 1, RK control rats (n=7); Group 2, RK+febuxostat (Fx) rats (n=8); Group 3, RK+oxonic acid (OA) rats (n=6); and Group 4, RK+OA+Fx (n=10). Oxonic acid (OA) (Sigma-Aldrich, St Louis Mo., USA), administered at 750 mg/kg body weight daily by oral gavage, was given starting the day after the ⅚ nephrectomy. Beginning immediately following the surgery, febuxostat was administered in drinking water at 30 mg/L (3-4 mg/kg/day), whereas the respective controls received only drinking water (with 3.5 mg/L of NaCl added to keep an equivalent salt concentration to the Fx-containing water). All groups were treated for four weeks. Body weight (beginning just before surgery) and food and water intakes were measured daily. Systolic blood pressure, measured in conscious rats by a tail cuff sphygmomanometer, and plasma uric acid (UA) levels were measured at just before surgery (namely, at baseline) and at the end of the four weeks. Proteinuria was measured at baseline and at the end of two and four weeks. A renal micropuncture procedure along with systemic blood pressure monitoring under pentobarbital anesthesia was performed at the end of four weeks followed by morphologic evaluation of the renal preglomerular microvasculature. Food and water intake were determined daily. Systolic blood pressure (SBP) was measured by a tail-cuff sphygmomanometer using an automated system (XBP-100; Kent Scientific Co, Torrington, Conn., USA) in conscious animals. All animals were preconditioned for blood pressure measurements one week before each experiment. Plasma uric acid was quantified using a commercial kit (Diagnostic Chemicals Ltd, Charlottetown, PEI, Canada). Proteinuria was determined by turbidimetry by the method of trichloroacetic acid as described in Henry R J et al., “Turbidimetric determination of proteins with sulfosalicylic and tricholoroacetic acids”, Proc Soc Exp Biol Med 92:748-751 (1956), the contents of which are herein incorporated by reference.

remnant kidney (RK) rats [2] = test: Plasma uric acid in remnant kidney rats; settings: RK+OA rats, end of four weeks
Method: Male Wistar rats (295-340 g) were used to produce rats with remnant kidney (RK) as follows. […] Rats were then assigned to one of four treatment groups: Group 1, RK control rats (n=7); Group 2, RK+febuxostat (Fx) rats (n=8); Group 3, RK+oxonic acid (OA) rats (n=6); and Group 4, RK+OA+Fx (n=10). Oxonic acid (OA) (Sigma-Aldrich, St Louis Mo., USA), administered at 750 mg/kg body weight daily by oral gavage, was given starting the day after the ⅚ nephrectomy. Beginning immediately following the surgery, febuxostat was administered in drinking water at 30 mg/L (3-4 mg/kg/day), whereas the respective controls received only drinking water (with 3.5 mg/L of NaCl added to keep an equivalent salt concentration to the Fx-containing water). All groups were treated for four weeks. Body weight (beginning just before surgery) and food and water intakes were measured daily. Systolic blood pressure, measured in conscious rats by a tail cuff sphygmomanometer, and plasma uric acid (UA) levels were measured at just before surgery (namely, at baseline) and at the end of the four weeks. Proteinuria was measured at baseline and at the end of two and four weeks. A renal micropuncture procedure along with systemic blood pressure monitoring under pentobarbital anesthesia was performed at the end of four weeks followed by morphologic evaluation of the renal preglomerular microvasculature. Food and water intake were determined daily. Systolic blood pressure (SBP) was measured by a tail-cuff sphygmomanometer using an automated system (XBP-100; Kent Scientific Co, Torrington, Conn., USA) in conscious animals. […] Plasma uric acid was quantified using a commercial kit (Diagnostic Chemicals Ltd, Charlottetown, PEI, Canada). Proteinuria was determined by turbidimetry by the method of trichloroacetic acid as described in Henry R J et al., “Turbidimetric determination of proteins with sulfosalicylic and tricholoroacetic acids”, Proc Soc Exp Biol Med 92:748-751 (1956), the contents of which are herein incorporated by reference.

remnant kidney (RK) rats [3] = test: Micropuncture procedure to assess glomerular hemodynamics
Method: Male Wistar rats (295-340 g) were used to produce rats with remnant kidney (RK) as follows. […] Rats were then assigned to one of four treatment groups: Group 1, RK control rats (n=7); Group 2, RK+febuxostat (Fx) rats (n=8); […] Oxonic acid (OA) (Sigma-Aldrich, St Louis Mo., USA), administered at 750 mg/kg body weight daily by oral gavage, was given starting the day after the 5⁄6 nephrectomy. […] All groups were treated for four weeks. Body weight (beginning just before surgery) and food and water intakes were measured daily. Systolic blood pressure, measured in conscious rats by a tail cuff sphygmomanometer, and plasma uric acid (UA) levels were measured at just before surgery (namely, at baseline) and at the end of the four weeks. Proteinuria was measured at baseline and at the end of two and four weeks. A renal micropuncture procedure along with systemic blood pressure monitoring under pentobarbital anesthesia was performed at the end of four weeks followed by morphologic evaluation of the renal preglomerular microvasculature. Animals were anesthetized with pentobarbital sodium (30 mg/kg, intraperitoneal (ip)) and placed on a thermoregulated table to maintain body temperature at 37° C. Trachea, jugular veins, femoral arteries and the left ureter were catheterized with polyethylene tubing (PE-240, PE-50, and PE-10). The left kidney was exposed, placed in a Lucite holder, sealed with agar, and covered with Ringer's solution. Mean arterial pressure (MAP) was monitored with a pressure transducer (Model p23 db; Gould, San Juan, Puerto Rico) connected to the catheter in the femoral artery and recorded on a polygraph (Grass Instruments, Quincy, Mass., USA). Blood samples were taken periodically and replaced with blood from a donor rat. Rats were maintained under euvolemic conditions by infusion of 10 mL/kg of body weight of isotonic rat plasma during surgery, followed by an infusion of 25%, polyfructosan, at 2.2 ml/h (Inutest; Fresenius Kabi, Linz, Austria). After 60 minutes, five to seven samples of proximal tubular fluid were obtained to determine flow rate and polyfructosan concentrations. Intratubular pressure under free-flow (FF) and stop-flow (SFP) conditions and peritubular capillary pressure (Pc) were measured in other proximal tubules with a servo-null device (Servo Nulling Pressure System; Instrumentation for Physiology and Medicine, San Diego, Calif., USA). Glomerular colloid osmotic pressure was estimated from protein concentrations obtained from blood of the femoral artery (Ca) and surface efferent arterioles (Ce). Polyfructosan was measured in plasma and urine samples by the anthrone-based technique described by Davidson and […] in “Simplification of the anthrone method for the determination of inulin in clearance studies,” J Lab Clin Med. 62:351-356 (1963), the contents of which are herein incorporated by reference. In brief, plasma samples were deproteinated first with trichloroacetic acid. After centrifugation, the supernatant was used for polyfructosan measurement. Polyfructosan concentrations in plasma and urine samples were assessed by the addition of anthrone reagent followed by incubation at 45° C. for 50 minutes and reading in a spectrophotometer set at wavelength of 620 nm. […] Total GFR was calculated using the following formula: GFR=(U×V)/P, where U is the polyfructosan concentration in urine, V is urine flow rate, and P is the polyfructosan concentration in plasma. The volume of fluid collected from individual proximal tubules was estimated from the length of the fluid column in a constant-bore capillary tube of known internal diameter. The concentration of tubular polyfructosan was measured by the microfluorometric method described by Vurek and Pegram in “Fluorometric method for the determination of nanogram quantities of inulin,” Anal Biochem 16:409-419 (1966), the contents of which are herein incorporated by reference. […]

remnant kidney (RK) rats [4] = test: Renal arteriolar morphology; settings: RK rats vs RK control group
Method: Male Wistar rats (295-340 g) were used to produce rats with remnant kidney (RK) as follows. […] Rats were then assigned to one of four treatment groups: Group 1, RK control rats (n=7); Group 2, RK+febuxostat (Fx) rats (n=8); Group 3, RK+oxonic acid (OA) rats (n=6); and Group 4, RK+OA+Fx (n=10). Oxonic acid (OA) (Sigma-Aldrich, St Louis Mo., USA), administered at 750 mg/kg body weight daily by oral gavage, was given starting the day after the 5⁄6 nephrectomy. Beginning immediately following the surgery, febuxostat was administered in drinking water at 30 mg/L (3-4 mg/kg/day), whereas the respective controls received only drinking water (with 3.5 mg/L of NaCl added to keep an equivalent salt concentration to the Fx-containing water). After the micropuncture study, kidneys were washed by perfusion with phosphate-buffered saline and then fixed with 4% paraformaldehyde. Renal biopsies were embedded in paraffin. Sections of 4-μm thick fixed tissue were stained with periodic acid Schiff (PAS) reagent and Masson's trichrome staining. Arteriolar morphology was assessed by indirect peroxidase immunostaining for alpha-smooth muscle actin (DAKO Corp, Carpinteria, Calif., USA). Renal sections incubated with normal rabbit serum were used as negative controls for immunostaining against alpha smooth-muscle actin. For each arteriole, the outline of the vessel and its internal lumen (excluding the endothelium) were generated using computer analysis to calculate the total medial area (outline inline), in 10 arterioles per biopsy. The media/lumen ratio was calculated by the outline/inline relationship (See, Sanchez-Lozada L G et al., “Mild hyperuricemia induces glomerular hypertension in normal rats”, Am J Physiol Renal Physiol 283:[…]-[…] (2002); Sanchez-Lozada L G, et al., “Mild hyperuricemia induces vasoconstriction and maintains glomerular hypertension in normal and remnant kidney rats,” Kidney Int 67:237-247 (2005), the contents of each are herein incorporated by reference). Quantifications were performed blinded.

[5] = RK rats (RK + Fx or RK + OA group), end of four weeks

## O=C(O)c1nc(=O)[nH]c(=O)[nH]1 [OA, oxonic acid, reference compound]
Remnant kidney (RK) rats [1]; End of Week 4
  BW: 328.5 ± 6.6 g
  BW Gain (from baseline): 5.5 ± 10.3 g
Remnant kidney (RK) rats [1]; Week 1
  Daily Food Intake: 14.2 ± 2.1 g
  Daily Water Intake: 44.3 ± 3.5 mL
Remnant kidney (RK) rats [1]; Week 2
  Daily Food Intake: 19.7 ± 0.7 g
  Daily Water Intake: 58.6 ± 1.4 mL
Remnant kidney (RK) rats [1]; Week 3
  Daily Food Intake: 21.3 ± 1.0 g
  Daily Water Intake: 57.2 ± 2.6 mL
Remnant kidney (RK) rats [1]; Week 4
  Daily Food Intake: 20.7 ± 0.9 g
  Daily Water Intake: 48.6 ± 3.0 mL
Remnant kidney (RK) rats [2]
  Plasma uric acid relative to the RK control rats (in words): increased significantly by over two-fold
Remnant kidney (RK) rats [3]; [5]
  GFR: 0.29 ± 0.06 mL/min
  Kf: 0.027 ± 0.003 nL/s · mmHg
  PGC: 64.4 ± 1.1 mmHg
  QA: 170 ± 16 nL/min
  SNGFR: 51.3 ± 4.8 nL/min
Remnant kidney (RK) rats [3]; RK rats (RK + Fx or RK + OA group), end of four weeks, under anesthesia
  MAP: 198 ± 10 mmHg
Remnant kidney (RK) rats [3]; RK+OA group
  Glomerular plasma flow (in words): significant decrease
Remnant kidney (RK) rats [3]; RK+OA rats vs RK control group
  GFR (in words): similarly low as in the RK control group
  Single-nephron GFR (in words): lower compared to the RK control group
Remnant kidney (RK) rats [3]; RK+OA rats vs RK control rats
  Afferent resistance (in words): significantly elevated
Remnant kidney (RK) rats [4]
  Thickening of preglomerular vessels / afferent arteriole (in words): developed additional thickening of the afferent arteriole
